Assay results as given in US7989469B2, “Certain chemical entities, compositions, and methods” (Cytokinetics, Incorporated, priority 2008, dated 2011).

System: rabbit skeletal muscle myofibril preparations (approximately 90% fast fibers)
Test: Activation of fast skeletal muscle fibers: enzymatic activity of myofibril preparations (PUMA assay system)
Assay type: biochemical
Design: unit not given here
Conditions: detergent treated myofibrils at pCa25%, 500 μM ATP
Summary of the method: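 Detergent-skinned, homogenized rabbit skeletal myofibrils (~90% fast fibers) were run at the calcium level giving 25% of maximal rate (pCa25%). Incubation used 500 μM ATP and 40 μM compound, with a kinetic UV absorbance read. Data were normalized to control wells; hits raised the rate by >40% at 40 μM.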

Row | Molecule | AC1.4 Median (cells marked †: Mean value) | AC1.4 Median (median value (no †))
1 | 7-(3,4-difluorophenyl)-6-chloro-1-(ethylpropyl)imidazo[4,5-b]pyridin-2-ol | 0.106† | 
2 | CC(C)C[C@@H](CO)n1c(O)nc2ncc(Cl)c(-c3ccc(F)cc3)c21 [1-[(1S)-2-hydroxy-1-(2-methylpropyl)ethyl]-6-chloro-7-(4-fluorophenyl)imidazo[4,5-b]pyridin-2-ol] | 0.072† | 
3 | 6-chloro-1-(ethylpropyl)-7-(2-methylphenyl)imidazo[4,5-b]pyridin-2-ol |  | 1.688
4 | CC[C@H](n1c(O)nc2ncc(Cl)c(-c3ccc(F)cc3)c21)C(C)(C)O [1-((1S)-1-ethyl-2-hydroxy-2-methylpropyl)-6-chloro-7-(4-fluorophenyl)imidazo[4,5-b]pyridin-2-ol] | 0.320† | 
5 | 6-chloro-1-(ethylpropyl)-7-(2-methyl(1,2,3,4-tetraazol-5-yl))imidazo[4,5-b]pyridin-2-ol |  | 6.404
6 | 6-chloro-1-(ethylpropyl)-7-[2-(trifluoromethyl)(4-pyridyl)]imidazo[4,5-b]pyridin-2-ol |  | 3.590
7 | 1-(ethylpropyl)-7-phenylimidazo[4,5-b]pyridin-2-ol |  | 2.083
8 | CC[C@@H](COC)n1c(O)nc2ncc(Cl)c(-c3ccc(F)cn3)c21 [1-[(1S)-1-(methoxymethyl)propyl]-6-chloro-7-(5-fluoro(2-pyridyl))imidazo[4,5-b]pyridin-2-ol] |  | 3.771
9 | OCCCn1c(O)nc2ncc(Cl)c(-c3ccc(F)cc3)c21 [6-chloro-7-(4-fluorophenyl)-1-(3-hydroxypropyl)imidazo[4,5-b]pyridin-2-ol] |  | 7.015
10 | CC[C@@H](CO)n1c(O)nc2ncc(Cl)c(-c3cccs3)c21 [1-((1S)-1-ethyl-2-hydroxyethyl)-6-chloro-7-(2-thienyl)imidazo[4,5-b]pyridin-2-ol] |  | 1.349
11 | 6-chloro-1-(ethylpropyl)-7-[2-(methoxymethyl)phenyl]imidazo[4,5-b]pyridin-2-ol |  | 3.588
12 | 6-chloro-1-(ethylpropyl)-7-(6-methyl(3-pyridyl))imidazo[4,5-b]pyridin-2-ol |  | 12.164
13 | CC[C@@H](CO)n1c(O)nc2ncc(Cl)c(-c3ccc(F)cn3)c21 [1-((1S)-1-ethyl-2-hydroxyethyl)-6-chloro-7-(5-fluoro(2-pyridyl))imidazo[4,5-b]pyridin-2-ol] |  | 7.549
14 | CC[C@@H](CO)n1c(O)nc2ncc(Cl)c(-c3ccc(OC)cc3)c21 [1-((1S)-1-ethyl-2-hydroxyethyl)-6-chloro-7-(4-methoxyphenyl)imidazo[4,5-b]pyridin-2-ol] |  | 5.251
15 | CC[C@H](C)n1c(O)nc2ncc(Cl)cc21 [1-((1S)-1-methylpropyl)-6-chloroimidazo[4,5-b]pyridin-2-ol] |  | 1.7291
16 | 6-chloro-1-(ethylpropyl)-7-(5-fluoro(3-pyridyl))imidazo[4,5-b]pyridin-2-ol |  | 4.428
17 | 6-chloro-1-(ethylpropyl)-7-(5-methyl(1,2,4-oxadiazol-3-yl))imidazo[4,5-b]pyridin-2-ol |  | 4.017
18 | CC[C@H](C)n1c(O)nc2ncc(Cl)c(-n3cccn3)c21 [1-((1S)-1-methylpropyl)-6-chloro-7-pyrazolylimidazo[4,5-b]pyridin-2-ol] |  | 1.0174
19 | CC[C@@H](CNC(C)=O)c1nc2nc(O)[nH]c2c(-c2ccc(F)cc2)c1Cl [N-{(2S)-2-[6-chloro-7-(4-fluorophenyl)-2-hydroxyimidazo[4,5-b]pyridinyl]butyl}acetamide] |  | 8.4925
20 | CC[C@@H](CO)n1c(O)nc2ncc(-c3ccc(F)cc3)c(-c3ccc(F)cc3)c21 [1-((1S)-1-ethyl-2-hydroxyethyl)-6,7-bis(4-fluorophenyl)imidazo[4,5-b]pyridin-2-ol] |  | 17.720
21 | 6-chloro-1-(ethylpropyl)-7-(2-methyl(4-pyridyl))imidazo[4,5-b]pyridin-2-ol |  | 14.091
22 | CC[C@@H](CO)n1c(O)nc2ncc(Cl)c(-c3ccc(Cl)cc3)c21 [1-((1S)-1-ethyl-2-hydroxyethyl)-6-chloro-7-(4-chlorophenyl)imidazo[4,5-b]pyridin-2-ol] | 0.261† | 2.059
23 | {4-[6-chloro-1-(ethylpropyl)-2-hydroxyimidazo[4,5-b]pyridin-7-yl]phenyl}(methylsulfonyl)amine |  | 26.368
24 | CC[C@@H](n1c(O)nc2ncc(Cl)c(-c3ccc(F)cc3)c21)C(C)(C)O [1-((1R)-1-ethyl-2-hydroxy-2-methylpropyl)-6-chloro-7-(4-fluorophenyl)imidazo[4,5-b]pyridin-2-ol] |  | 0.537
25 | 6-chloro-1-(ethylpropyl)-7-(3-methylphenyl)imidazo[4,5-b]pyridin-2-ol |  | 0.482
26 | 6-chloro-7-(5-chloro(2-pyridyl))-1-(ethylpropyl)imidazo[4,5-b]pyridin-2-ol | 0.320† | 
27 | Oc1nc2ncc(Cl)c(-c3ccc(F)cc3)c2n1C1CCCC1 [6-chloro-1-cyclopentyl-7-(4-fluorophenyl)imidazo[4,5-b]pyridin-2-ol] |  | 1.677
28 | 6-chloro-1-(ethylpropyl)-7-(4-fluorophenyl)imidazo[4,5-b]pyridin-2-ol | 0.074† | 
